“And” between values parts separate entries of the source, which are not always exact repeats. Equal entries are not always repeated.
Key:
[1] = molecular target: T1, hSGLT2 S74A (Homo sapiens, UniProt P31639, S74A); type: binding; details: S74A
T1 construct: expressed in transfected cells; host or cells: Expi293 cells, crude membrane fraction
Excerpt: (§1) hSGLT2 complementary DNA and human MAP17 cDNA were synthesized and codon-optimized for expression in human cell lines. Both cDNAs were cloned into the pcDNA3.4 vector. The hSGLT2 sequence was fused with an N-terminal signal sequence from human trypsinogen 1, a His10 tag, and sfGFP, followed by a human rhinovirus 3C protease (HRV3C protease) recognition site. Point mutations were introduced into this construct using site-directed mutagenesis. These plasmids were utilized for all experimental procedures conducted in this study.
To examine the inhibition of binding to the crude membrane, mammalian Expi293 cells were co-transfected with the hMAP17 and hSGLT2 plasmids, as described. The cells were collected and disrupted by sonication in a hypotonic buffer (50 mM HEPES–NaOH (pH 7.5), 10 mM KCl and protease inhibitor cocktail) or Na^+-free hypotonic buffer (50 mM Tris–HCl (pH 7.5), 10 mM KCl and protease inhibitor cocktail). The cell debris were removed by centrifugation (2,000g, 5 min, 4 °C). The membrane fraction was collected by ultracentrifugation (112,000g, 30 min, 4 °C) and stored at −80 °C before use. […] The extract solution from the filter plate was diluted with water containing candesartan as an internal standard, and the SGLT2 inhibitor concentration was quantified via LC–MS/MS.
Nonspecific binding was measured using the crude membrane of nontransfected Expi293 cells. Specific binding was calculated by subtracting nonspecific binding from the binding of hSGLT2-expressing cells. Specific binding was normalized to hSGLT2 protein expression levels, measured via FSEC. The equilibrium dissociation constant (Kd) and maximum number of binding sites (Bmax) were calculated via nonlinear regression in GraphPad Prism 8.4.3. […]
(§2) The concentrations of the extract solution from the filter plate and of the cell lysate were quantified using a tandem mass spectrometry QTRAP6500 System (SCIEX) coupled with an ACQUITY UPLC system (Waters) using the internal standard method. […]

[2] = test system: SGLT1 and SGLT2; details: in words; cited from earlier work
[3] = molecular target: T1, hSGLT2 S74A; test: cell-based
Excerpt: as §1
HEK293 cells (ECACC 85120602) were maintained in Dulbecco’s modified Eagle medium (Gibco) supplemented with 10% fetal bovine serum (Thermo Scientific), 2 mM L-glutamine, 100 U ml^−1 benzylpenicillin and 100 µg ml^−1 streptomycin at 37 °C in a humidified atmosphere (5% CO2 in air). HEK293 cells were seeded at 1.0 × 10^5 cells per well in poly-L-lysine coated 24-well plates. […]
(§3) Cell lysates were deproteinized by adding acetonitrile containing candesartan as the internal standard. The α-MG concentration was quantified via liquid chromatography–tandem mass spectrometry (LC–MS/MS) using the internal standard method.
(§4) Cellular protein content was determined using a bicinchoninic acid protein assay kit (Thermo Fisher Scientific). The uptake of α-MG was expressed as the ratio of concentration in the cells (in pmol per mg protein) to concentration in the medium (in pmol μl^−1); this is known as the cell-to-medium ratio (in μl per mg protein).
(§5) In the inhibition study, the cell-to-medium ratio of cells transfected with the empty vector was used as the background. The specific α-MG uptake was calculated by subtracting this background from the total cell-to-medium ratio and normalized to the uptake achieved without the inhibitor. IC50 was calculated via nonlinear regression using GraphPad Prism 8.4.3.
as §2

[4] = molecular target: T2, WT hSGLT2 (Homo sapiens, UniProt P31639); test: α-MG uptake in hSGLT2-transfected HEK293 cells, WT; type: cell-based
T2 construct: expressed in transfected cells; host or cells: HEK293 cells (ECACC 85120602)
T2 sequence (P31639 1-672): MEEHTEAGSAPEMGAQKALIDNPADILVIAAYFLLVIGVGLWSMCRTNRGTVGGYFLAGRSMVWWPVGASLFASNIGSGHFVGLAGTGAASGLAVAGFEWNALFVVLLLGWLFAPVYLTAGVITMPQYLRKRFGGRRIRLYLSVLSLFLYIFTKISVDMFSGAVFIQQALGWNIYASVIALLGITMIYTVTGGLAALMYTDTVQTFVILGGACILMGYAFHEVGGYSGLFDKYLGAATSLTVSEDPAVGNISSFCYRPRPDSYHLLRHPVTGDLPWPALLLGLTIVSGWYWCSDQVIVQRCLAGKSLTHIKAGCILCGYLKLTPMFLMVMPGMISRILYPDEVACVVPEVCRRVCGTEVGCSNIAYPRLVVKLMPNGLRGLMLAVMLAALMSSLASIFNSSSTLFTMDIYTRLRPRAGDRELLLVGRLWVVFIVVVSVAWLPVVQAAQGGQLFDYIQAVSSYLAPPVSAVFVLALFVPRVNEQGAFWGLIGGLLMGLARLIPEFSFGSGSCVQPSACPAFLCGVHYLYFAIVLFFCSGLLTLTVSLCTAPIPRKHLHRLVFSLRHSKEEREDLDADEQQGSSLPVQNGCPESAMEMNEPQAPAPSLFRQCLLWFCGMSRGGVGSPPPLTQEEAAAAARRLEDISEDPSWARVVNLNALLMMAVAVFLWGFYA
T2 sequence (Q13113 1-114 partner): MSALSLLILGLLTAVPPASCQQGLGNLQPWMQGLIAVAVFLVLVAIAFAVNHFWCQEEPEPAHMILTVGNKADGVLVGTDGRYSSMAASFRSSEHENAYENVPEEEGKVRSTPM
Procedure: HEK293 cells (ECACC 85120602) were maintained in Dulbecco’s modified Eagle medium (Gibco) supplemented with 10% fetal bovine serum (Thermo Scientific), 2 mM L-glutamine, 100 U ml^−1 benzylpenicillin and 100 µg ml^−1 streptomycin at 37 °C in a humidified atmosphere (5% CO2 in air). HEK293 cells were seeded at 1.0 × 10^5 cells per well in poly-L-lysine coated 24-well plates. The cells in each well were transiently transfected with 0.25 µg hMAP17 plasmid and 0.50 µg hSGLT2 plasmid using Lipofectamine 2000 (Life Technologies) and cultured for 48 h. […] After preincubation, uptake was initiated by replacing the preincubation buffer with extracellular fluid buffer containing 500 μM α-MG in the absence or presence of inhibitors. Uptake was completed by removing the uptake buffer and washing with ice-cold buffer three times, followed by solubilization in 1 N NaOH at room temperature.
as §3, §4, §5
The concentrations of the extract solution from the filter plate and of the cell lysate were quantified using a tandem mass spectrometry QTRAP6500 System (SCIEX) coupled with an ACQUITY UPLC system (Waters) using the internal standard method. Mobile phases A and B used 10 mM of ammonium bicarbonate and acetonitrile, respectively.

T1 sequence (P31639 whole entry S74A, one chain of several): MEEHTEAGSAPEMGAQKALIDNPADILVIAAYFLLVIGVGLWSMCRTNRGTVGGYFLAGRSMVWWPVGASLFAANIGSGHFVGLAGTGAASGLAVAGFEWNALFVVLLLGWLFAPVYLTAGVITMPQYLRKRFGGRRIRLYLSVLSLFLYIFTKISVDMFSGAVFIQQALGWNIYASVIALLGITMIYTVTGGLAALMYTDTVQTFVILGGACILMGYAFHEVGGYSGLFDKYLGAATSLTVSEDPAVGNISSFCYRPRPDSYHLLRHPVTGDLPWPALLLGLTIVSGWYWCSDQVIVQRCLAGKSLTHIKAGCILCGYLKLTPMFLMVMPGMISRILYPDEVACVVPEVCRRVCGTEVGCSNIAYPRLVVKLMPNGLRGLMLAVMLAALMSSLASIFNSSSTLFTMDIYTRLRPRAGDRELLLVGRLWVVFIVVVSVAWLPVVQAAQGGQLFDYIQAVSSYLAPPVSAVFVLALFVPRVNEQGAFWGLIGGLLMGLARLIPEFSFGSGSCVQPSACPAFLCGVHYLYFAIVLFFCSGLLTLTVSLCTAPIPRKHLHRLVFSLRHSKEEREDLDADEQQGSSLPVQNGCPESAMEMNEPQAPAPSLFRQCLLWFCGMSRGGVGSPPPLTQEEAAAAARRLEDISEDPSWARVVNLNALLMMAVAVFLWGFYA

Cc1ccc([C@@H]2O[C@H](CO)[C@@H](O)[C@H](O)[C@H]2O)cc1Cc1ccc(-c2ccc(F)cc2)s1 [Canagliflozin]
Canagliflozin binding (% of WT) ([1]; 30 nM canagliflozin, replicates): 75.2559 % of WT and 78.5839 % of WT and 93.2268 % of WT
subtype specificity of inhibition (SGLT1 vs SGLT2) [2]: SGLT2-specific inhibition

O=C(CCc1ccc(O)cc1)c1c(O)cc(O)cc1O[C@@H]1O[C@H](CO)[C@@H](O)[C@H](O)[C@H]1O [Phlorizin]
remaining activity at 0.003 µM ([3]; HEK293, read-out: α-MG uptake (% of control), Phlorizin 3 nM): 95.3%
remaining activity at 0.03 µM ([3]; HEK293, read-out: α-MG uptake (% of control), Phlorizin 30 nM): 80.6%
remaining activity at 0.1 µM ([3]; HEK293, read-out: α-MG uptake (% of control), Phlorizin 100 nM): 70.1%
remaining activity at 0.0003 µM ([4]; HEK293, Phlorizin 0.3 nM, WT, read-out: α-MG uptake (% of control)): 103%
remaining activity at 0.001 µM ([4]; HEK293, Phlorizin 1 nM, WT, read-out: α-MG uptake (% of control)): 101%
remaining activity at 0.01 µM ([4]; HEK293, Phlorizin 10 nM, WT, read-out: α-MG uptake (% of control)): 81.9%
remaining activity at 0.03 µM ([4]; HEK293, Phlorizin 30 nM, WT, read-out: α-MG uptake (% of control)): 53.8%
remaining activity at 0.1 µM ([4]; HEK293, Phlorizin 100 nM, WT, read-out: α-MG uptake (% of control)): 36.9%
remaining activity at 0.3 µM ([4]; HEK293, Phlorizin 300 nM, WT, read-out: α-MG uptake (% of control)): 18.1%
α-MG uptake (% of control) ([4]; Phlorizin 0.3 nM, WT): 107.5 % of control and 105.5 % of control
α-MG uptake (% of control) ([4]; Phlorizin 1 nM, WT): 114.0 % of control and 107.4 % of control
α-MG uptake (% of control) ([4]; Phlorizin 3 nM, WT): 83.9 % of control and 115.8 % of control and 121.5 % of control
α-MG uptake (% of control) ([4]; Phlorizin 10 nM, WT): 71.6 % of control and 84.5 % of control
α-MG uptake (% of control) ([4]; Phlorizin 30 nM, WT): 70.4 % of control and 72.9 % of control
α-MG uptake (% of control) ([4]; Phlorizin 100 nM, WT): 38.1 % of control and 34.4 % of control
α-MG uptake (% of control) ([4]; Phlorizin 300 nM, WT): 15.6 % of control and 11.8 % of control
Bmax1 ([1]; phlorizin, mean ± SEM n=3): 1.16 ± 0.07 pmol/mg-protein

CO[C@H]1O[C@H](CO)[C@@H](O)[C@H](O)[C@H]1O [α-MG, α-methyl-D-glucopyranoside]
α-MG uptake ([4]; Control (no inhibitor), hSGLT2 cells): 23.4464 μL/mg-protein and 18.7820 μL/mg-protein and 14.3913 μL/mg-protein and 26.3540 μL/mg-protein
α-MG uptake ([4]; Fig. 3h, WT): 101.43 μL/mg-protein and 101.01 μL/mg-protein and 97.56 μL/mg-protein
α-MG uptake ([4]; time course, 500 μM α-MG, 15 min, hSGLT2): 4.1190 μL/mg-protein and 4.1163 μL/mg-protein and 6.4519 μL/mg-protein
α-MG uptake ([4]; time course, 500 μM α-MG, 30 min, hSGLT2): 12.1536 μL/mg-protein and 10.6771 μL/mg-protein and 14.5344 μL/mg-protein
